Measured values as given in patent publication US20240397944A1, “METHODS FOR BIOFILM DISRUPTION” (Neolixir Limited, priority 2021, published 2024).
In brackets after ≈: the same amount, converted by molar mass.

Assays:
[1] = system: P. aeruginosa (ATCC 27853); test: Antimicrobial activity on planktonic bacteria, flow cytometry and broth microdilution; details: for MIC: Pseudomonas aeruginosa, ATCC27853, read-out: minimum inhibitory concentration (MIC); for concentration at which first significant phenotypic change (decrease in SYTO 9 fluorescence) was observed: flow cytometry, 3 hours
Procedure: (§3) This was undertaken in parallel with a conventional broth microdilution (BMD) assay.
(§4) Two-fold serial dilutions of D- or L-lactate were performed in a 96-well plate, ranging from 0.008 grams per litre to 8 g/L with a volume of 50 μL per well.
(§5) The bacterial suspensions were prepared from cultures grown overnight in trypticase soya broth (TSB). Each culture was diluted 1:1000 in Hanks buffered saline solution (HBSS), stained with 1 μL of SYTO® 9, incubated for a minimum of 8 minutes with shaking, and enumerated by flow cytometry. The TSB cultures were then adjusted to 2×10^5 cells per mL in CAMHB.
(§6) To the replicate dilution series of lactic acids, 50 μL of bacterial suspension was added for a final volume of 100 μL per well, each row containing a concentration gradient ranging from 0.004 to 4 g/L. There were 3 organisms per plate (E. coli, P. aeruginosa, S. aureus), set up in duplicate. […] These wells were representative of the suspension density at the time of inoculation.
(§7) For conventional BMD, the incubation time was 24 hours. For flow cytometry, the incubation time was 3 hours. For flow cytometry, following incubation 100 μL of HBSS, containing SYTO® 9 at a concentration of 10 μM was added to each well of the plate for a final dye concentration of 5 μM. The plates were then incubated at ambient temperature in the dark for 10 minutes, loaded onto the Attune™ Autosampler, and the data acquired. The plates were run simultaneously on two different Attune™ cytometers.

E. coli (ATCC 25922) = test: as above; details: for MIC: Escherichia coli, ATCC25922, read-out: minimum inhibitory concentration (MIC); for concentration at which first significant phenotypic change (decrease in SYTO 9 fluorescence) was observed: flow cytometry, 3 hours
Procedure: as §3, §4, §5, §6, §7

[2] = system: Staphylococcus aureus biofilm; test: Crystal violet biofilm formation and mature biofilm assay; type: cell-based; details: added at t=0 (de novo forming) or t=24 hours (established), pH 7.0, FIG. 5
Procedure: (§1) After addition of treatments, all plates were then incubated for 24 hours at 37° C.
(§2) Following incubation at room temperature for 15 minutes the microtiter plates were washed 3-4 times with water by submerging in water, with blotting to rid the plate of all excess cells and dye. Plates were left to dry overnight. The CV stain was solubilised with 125 ul of 30% acetic acid and absorbance to indicate biofilm biomass quantified at 550 nm following an incubation of 15 minutes, normalised to vehicle only.

[3] = system: Pseudomonas aeruginosa biofilm; test: as above; type: cell-based; details: added at t=0 (de novo forming) or t=24 hours (established), pH 7.0, FIG. 5
Procedure: as §1, §2

S. aureus (ATCC 33592) = test: Antimicrobial activity on planktonic bacteria, flow cytometry and broth microdilution; details: for MIC: Staphylococcus aureus, ATCC33592, read-out: minimum inhibitory concentration (MIC); for concentration at which first significant phenotypic change (decrease in SYTO 9 fluorescence) was observed: flow cytometry, 3 hours
Procedure: as §3, §4, §5, §6, §7

S. epidermidis biofilm = test: Crystal violet biofilm formation and mature biofilm assay; type: cell-based, Staphylococcus epidermidis; details: added at t=0 (de novo forming) or t=24 hours (established), pH 7.0, FIG. 5
Procedure: as §1, §2

[4] = cited from earlier work
[5] = Octanol-Water; cited from earlier work
[6] = system: P. aeruginosa clinical isolates from patients with cystic fibrosis; test: Resazurin staining of biofilm microcolonies from clinical isolates; details: for Altered metabolism with treatment (% of isolates) / Metabolism change (% from baseline): 0.5-1.25 ug/ml, 24 hours
Procedure: Cultures of interest were thawed and streaked out on blood agar plates and allowed to grow at 37° C., 5% CO2 for 12-24 hours until suitable growth was achieved to enable further culturing. An isolated colony was looped into 5 ml of LB broth and incubated overnight at 37° C., 5% CO2.
Stock cultures were diluted 1:1000 in 1% of appropriate media (LB for mucoid P. aeruginosa strains; M63 medium was used for P. aeruginosa rough strains 001-11R; PMM for all other strains) to achieve approximately 10^8 cfu/ml (confirmed by measuring 0.02 absorbance units, approximately 1.8 ul in 2 ml of media). Diluted working cultures were mixed well and seeded at 200 ul/well across a 96 well microtitre plate, with biofilm formation complete approximately 24-48 hours following seeding.
Treatments were completed in duplicate for all bacterial strains across the dose range used.
Viable cells reduce the blue resazurin dye to the pink-fluorescent resorufin form. Following incubation fluorescence was quantified by excitation wavelength of 540 nm and an emission wavelength of 590 nm using Enspire microplate reader.

[7] = system: P. aeruginosa clinical isolates from patients with cystic fibrosis; test: Crystal violet staining of biofilm microcolonies from clinical isolates; type: cell-based; details: for Biofilm breakdown (% from baseline) / Isolates responsive to breakdown (% of isolates): 0.5-1.25 ug/ml, 24 hours
[8] = system: Pseudomonas aeruginosa (WACC91 and PA-001) biofilm; test: Crystal violet staining of biofilm-protected P. aeruginosa microcolonies; type: cell-based
Procedure: Laboratory strains of Pseudomonas aeruginosa (WACC91 and PA-001) were thawed (stored as 50% glycerol stocks at −70° C.+2° C.) and streaked out on blood agar plates. […] In this case cultures were propagated to stationary phase to induce stress responses needed to induce biofilm formation on seeding for treatment. […] Biofilm formation was complete approximately 24-48 hours following seeding, this was confirmed by a minimum of 1.8 absorbance units at 600 nm. Prebiotic solution collected from C1 was applied to B0 cultures that had achieved biofilm formation. A 10 dose dilution series of the prebiotic test solution in PMM was prepared (Table 2) to determine the optimal dose range for biofilm disruption of B0 cultures, with 50 μl total volume added to each B0 culture. […] The CV stain was solubilised with 125 ul of 30% acetic acid and absorbance to indicate biofilm density (also referred to as biofilm biomass) was quantified at 550 nm following an incubation of 15 minutes at room temperature. […] Biofilm formation was complete approximately 24-48 hours following seeding as confirmed by a minimum of 1.8 absorbance units at 600 nm. […] The CV stain was solubilised with 125 ul of 30% acetic acid and absorbance to indicate biofilm biomass quantified at 550 nm following an incubation of 15 minutes.

[9] = system: Pseudomonas aeruginosa (WACC91) biofilm-protected microcolonies; test: Resazurin staining, bacterial metabolic activity of biofilm-protected cultures; type: cell-based
Procedure: Laboratory strains of Pseudomonas aeruginosa (WACC91 and PA-001) were thawed (stored as 50% glycerol stocks at −70° C.+2° C.) and streaked out on blood agar plates. […] In this case cultures were propagated to stationary phase to induce stress responses needed to induce biofilm formation on seeding for treatment.
Biofilm formation was complete approximately 24-48 hours following seeding, this was confirmed by a minimum of 1.8 absorbance units at 600 nm.
Prebiotic solution collected from C1 was applied to B0 cultures that had achieved biofilm formation. A 10 dose dilution series of the prebiotic test solution in PMM was prepared (Table 2) to determine the optimal dose range for biofilm disruption of B0 cultures, with 50 μl total volume added to each B0 culture.
A 12-fold serial dilution of tobramycin (99% pure tobramycin sulfate powder, Research Products International) standards were prepared in PMM (8 ng/ml-16 ug/ml), to act as a reference point for assessing biofilm disruption activity observed by the prebiotic test treatment (Table 2). Tobramycin is an antibiotic commonly used to treat chronic respiratory bacterial infections, particularly Pseudomonas aeruginosa. A total of 50 ul of tobramycin standards were added to B0 cultures that had achieved biofilm formation. […]

[10] = rabbit; cited from earlier work
[11] = rat, 4 h; cited from earlier work

C[C@H](O)C(=O)O [L-lactic acid, reference compound]
MIC [1]: 4000 µg/mL (≈ 44.4 mM) | concentration at which first significant phenotypic change (decrease in SYTO 9 fluorescence) was observed [1]: 1 g/L | MIC (E. coli (ATCC 25922)): 4000 µg/mL (≈ 44.4 mM) | concentration at which first significant phenotypic change (decrease in SYTO 9 fluorescence) was observed (E. coli (ATCC 25922)): 1 g/L | biofilm mass (crystal violet) compared to baseline [2]: not | biofilm mass (crystal violet) compared to baseline [3]: not | MIC (S. aureus (ATCC 33592)): 4000 µg/mL (≈ 44.4 mM) | concentration at which first significant phenotypic change (decrease in SYTO 9 fluorescence) was observed (S. aureus (ATCC 33592)): 1 g/L | biofilm mass (crystal violet) compared to baseline (S. epidermidis biofilm): not

CC(O)C(=O)O (racemic) [racemic mix (D/L), D/L lactic acid]
biofilm mass (crystal violet) compared to baseline [2]: variable results | biofilm mass (crystal violet) compared to baseline [3]: variable results | biofilm mass (crystal violet) compared to baseline (S. epidermidis biofilm): variable results

O=C(O)C(O)c1ccccc1 (stereo not drawn) [2-hydroxy-2-phenylacetic acid]
Water solubility [4]: 1140 mM | Log P [5]: 0.67

C[C@@H](O)C(=O)O [D-lactic acid, (2R)-2-hydroxypropanoic acid]
Altered metabolism with treatment (% of isolates) ([6]; Mucoid isolates): 75 % of isolates | Metabolism change (% from baseline) ([6]; Mucoid isolates): 37 % from baseline | Altered metabolism with treatment (% of isolates) ([6]; Non-mucoid isolates): 69.2 % of isolates | Metabolism change (% from baseline) ([6]; Non-mucoid isolates): 46.1 % from baseline | share of all strains tested showing a change in metabolic activity ([6]; all strains tested): More than 65% | MIC [1]: 4000 µg/mL (≈ 44.4 mM) | concentration at which first significant phenotypic change (decrease in SYTO 9 fluorescence) was observed [1]: 1 g/L | MIC (E. coli (ATCC 25922)): 4000 µg/mL (≈ 44.4 mM) | concentration at which first significant phenotypic change (decrease in SYTO 9 fluorescence) was observed (E. coli (ATCC 25922)): 1 g/L | Biofilm breakdown (% from baseline) ([7]; Mucoid isolates): 17.2 % from baseline | Isolates responsive to breakdown (% of isolates) ([7]; Mucoid isolates): 60 % of isolates | Biofilm breakdown (% from baseline) ([7]; Non-mucoid isolates): 23 % from baseline | Isolates responsive to breakdown (% of isolates) ([7]; Non-mucoid isolates): 53.8 % of isolates | share of all strains showing evidence of biofilm disruption ([7]; all strains tested): Greater than 50% | active dose range for biofilm disruption ([8]; pure grade standards run against prebiotic test solution dilutions, methods of Example 1): 0.25 to 1.25 mg/mL | MIC (S. aureus (ATCC 33592)): 4000 µg/mL (≈ 44.4 mM) | concentration at which first significant phenotypic change (decrease in SYTO 9 fluorescence) was observed (S. aureus (ATCC 33592)): 1 g/L

CCCCC(O)C(=O)O (stereo not drawn) [2-hydroxyhexanoic acid]
Water solubility [4]: 270 mM

CCCC(O)C(=O)O (stereo not drawn) [2-hydroxypentanoic acid]
Water solubility [4]: 1640 mM

NC[C@H]1O[C@H](O[C@H]2[C@H](O)[C@@H](O[C@H]3O[C@H](CO)[C@@H](O)[C@H](N)[C@H]3O)[C@H](N)C[C@@H]2N)[C@H](N)C[C@@H]1O [tobramycin]
concentrations at which reduced metabolic activity was observed ([9]; WACC91, 24 hrs treatment, supernatants): 1 to 16 µg/mL | inhibition of metabolic activity relative to prebiotic test solution (90%) ([9]; bioactive dose 16 ug/ml): comparable | reduced biofilm density ([8]; tobramycin 16 ug/ml, bioactive dose): 80-90%

CCC(O)C(=O)O (stereo not drawn) [2-hydroxybutanoic acid]
Water solubility [4]: 1930 mM

CC(O)C(=O)O (stereo not drawn) [2-hydroxypropanoic acid]
LD50 Dermal [10]: >2000 mg/kg (rabbit) | LC50 Inhalation [11]: >7.94 mg/L (rat) 4 h
